Assay results taken from paper PMC5579037, “Modification of the response of olfactory receptors to acetophenone by CYP1a2” (Scientific Reports, 2017).

Tests used:
Format in all cases: cell-based
MOR164-2 = target: T1, MOR164-2 (Mus musculus, UniProt Q7TRB9); assay: CRE-luciferase reporter assay in Hana3A cells; conditions: no CYP co-expressed; RTP1S and M3-R; 3 h, 37 °C; agonist
T1 construct: gene Or8b56; ORF from mouse genomic DNA, N-terminal Rho-tag, pCI; Hana3A cells with RTP1S and M3-R
T1 sequence (Q7TRB9 1-317): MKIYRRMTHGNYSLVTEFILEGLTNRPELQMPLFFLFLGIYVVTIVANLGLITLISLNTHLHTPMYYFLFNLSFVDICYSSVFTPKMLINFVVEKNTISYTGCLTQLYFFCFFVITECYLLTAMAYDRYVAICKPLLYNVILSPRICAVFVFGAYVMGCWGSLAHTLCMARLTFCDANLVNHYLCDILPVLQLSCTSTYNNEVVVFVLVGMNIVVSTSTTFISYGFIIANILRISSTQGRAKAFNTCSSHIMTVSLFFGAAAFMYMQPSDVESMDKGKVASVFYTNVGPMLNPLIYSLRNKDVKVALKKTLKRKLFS

MOR123-2 = target: T2, MOR123-2 (Mus musculus, UniProt E9Q8M2); assay: CRE-luciferase reporter assay in Hana3A cells; conditions: no CYP co-expressed; RTP1S and M3-R; 3 h, 37 °C; agonist
T2 construct: gene Or10aa3; ORF from mouse genomic DNA, N-terminal Rho-tag, pCI; Hana3A cells with RTP1S and M3-R
T2 sequence (E9Q8M2 1-312): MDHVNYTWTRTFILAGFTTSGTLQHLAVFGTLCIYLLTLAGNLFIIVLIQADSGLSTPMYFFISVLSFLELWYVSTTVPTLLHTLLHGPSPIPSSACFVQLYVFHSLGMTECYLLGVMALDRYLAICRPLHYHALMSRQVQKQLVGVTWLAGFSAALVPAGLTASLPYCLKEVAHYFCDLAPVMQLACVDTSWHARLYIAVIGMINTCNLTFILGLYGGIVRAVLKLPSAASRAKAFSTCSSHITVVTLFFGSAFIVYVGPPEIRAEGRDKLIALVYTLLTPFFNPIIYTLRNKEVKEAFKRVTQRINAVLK

MOR161-2 = target: T3, MOR161-2 (Mus musculus, UniProt Q7TRE6); assay: CRE-luciferase reporter assay in Hana3A cells; conditions: no CYP co-expressed; RTP1S and M3-R; 3 h, 37 °C; agonist
T3 construct: gene Or8b12; Hana3A cells with RTP1S and M3-R
T3 sequence (Q7TRE6 1-310): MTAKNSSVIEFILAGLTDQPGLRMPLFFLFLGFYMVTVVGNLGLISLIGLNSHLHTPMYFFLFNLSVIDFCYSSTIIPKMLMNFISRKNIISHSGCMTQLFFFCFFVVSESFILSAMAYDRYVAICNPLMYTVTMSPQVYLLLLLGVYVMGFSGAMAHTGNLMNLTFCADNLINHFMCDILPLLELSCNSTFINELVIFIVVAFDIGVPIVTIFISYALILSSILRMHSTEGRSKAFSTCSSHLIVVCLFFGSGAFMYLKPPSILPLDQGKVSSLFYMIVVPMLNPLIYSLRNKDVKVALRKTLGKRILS

CYP1a2 = target: T4, CYP1a2 (Mus musculus, UniProt P00186); assay: P450-Glo luminescence assay in transfected Hana3A cells; conditions: CD293 medium, 3 h, 37 °C; against mock transformant
T4 construct: cDNA from mouse olfactory epithelium library, pCI vector, expressed in Hana3A cells
T4 sequence (P00186 2-513): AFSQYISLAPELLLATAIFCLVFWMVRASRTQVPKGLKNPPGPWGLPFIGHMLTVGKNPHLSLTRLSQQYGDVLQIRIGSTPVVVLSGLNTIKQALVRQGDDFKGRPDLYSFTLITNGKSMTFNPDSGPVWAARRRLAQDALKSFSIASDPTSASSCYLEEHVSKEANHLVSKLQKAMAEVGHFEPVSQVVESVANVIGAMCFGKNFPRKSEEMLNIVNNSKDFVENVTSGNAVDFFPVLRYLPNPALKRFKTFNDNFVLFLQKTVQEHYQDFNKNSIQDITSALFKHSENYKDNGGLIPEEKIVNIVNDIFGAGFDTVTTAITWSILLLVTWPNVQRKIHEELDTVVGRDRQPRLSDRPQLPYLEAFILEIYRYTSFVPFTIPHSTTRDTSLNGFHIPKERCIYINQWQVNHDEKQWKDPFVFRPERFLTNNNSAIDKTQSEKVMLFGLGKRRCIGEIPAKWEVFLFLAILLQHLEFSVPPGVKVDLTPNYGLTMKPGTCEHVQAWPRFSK

| SMILES | CRE-luciferase reporter assay in Hana3A cells (MOR164-2) | CRE-luciferase reporter assay in Hana3A cells (MOR123-2) | CRE-luciferase reporter assay in Hana3A cells (MOR161-2) | P450-Glo luminescence assay in transfected Hana3A cells (CYP1a2) |
| --- | --- | --- | --- | --- |
| CC(=O)c1ccccc1 [acetophenone] | We observed effects of CYPs on the responses of MOR123-2, MOR161-2 and MOR164-2. | We observed effects of CYPs on the responses of MOR123-2, MOR161-2 and MOR164-2. | We compared the response of MOR161-2 against acetophenone and methyl salicylate. |  |
| COC(=O)c1ccccc1 [methyl benzoate] |  |  | Potential intermediates are methyl benzoate and salicylate, and indeed MOR161-2 responded to both of them. |  |
| O=C(O)c1ccccc1O [salicylic acid] |  |  | Potential intermediates are methyl benzoate and salicylate, and indeed MOR161-2 responded to both of them. |  |
| COc1ccc2nc(C3=NC(C(=O)O)CS3)sc2c1 (stereo not shown) [luciferin-ME] |  |  |  | Functional expression of CYP1a2 in Hana3A cells was confirmed by the P450-Glo assay using luciferin-ME |
| COC(=O)c1ccccc1O [methyl salicylate] |  |  | MOR161-2 showed a larger response to methyl salicylate than acetophenone. |  |
